Our source for the Km values is PMC4004102 (Molecular cell, 2014).

This experiment deals with AgrC-I (Staphylococcus aureus, UniProt Q309Y8). In words: reverse autokinase kinetics, Michaelis-Menten. The class given is biochemical. The settings on record: reverse reaction from pre-phosphorylated AgrC-I discs; without AIP.

Consider `Nc1ncnc2c1ncn2[C@@H]1O[C@H](COP(=O)(O)OP(=O)(O)O)[C@@H](O)[C@H]1O` [ADP], for which the Km result was “the Km for ADP was lower while the kmax was higher than the forward reaction”.
